In PMC7370100, “In Vitro Assessment of the Genotoxic Hazard of Novel Hydroxamic Acid- and Benzamide-Type Histone Deacetylase Inhibitors (HDACi)” (International Journal of Molecular Sciences, 2020):

Tests used:
[1] = system: V79 cells; assay: Phospho-ATM (pATM) foci formation; format: cell-based, hamster; details: 6 to 24 h, V79, in words
Text: Figure 4 Cell cycle-related formation of DNA damage by hydroxamic acid- and benzamide-type HDACi. […] (B) For positive control, ionizing radiation (IR) was used. Shown are representative pictures of γH2AX, 53BP1, and pATM stained cells. […] Data shown are the mean ± SD from three independent experiments (n = 3); *, p ≤ 0.05; **, p ≤ 0.01 as compared to the untreated control, which was set to 1.0 (Student´s t-test).

[2] = set-up: method as in PMID 15897550; details: humans; read-out: maximal blood serum concentration (Cmax); cited from earlier work
[3] = system: V79 cells; assay: Nuclear 53BP1 foci formation; format: cell-based, hamster; details: 6 to 24 h, V79, in words
Method: The frequency of nuclear foci formed by S139 phosphorylated H2AX (γH2AX foci), which is a surrogate marker of DNA damage, especially DNA double-strand breaks (DSBs), was assayed by immunocytochemistry-based analysis. […] The appearance of nuclear 53BP1 foci, which is another marker of DSBs, was also determined by immunocytochemistry. Cells were fixed with 4% formaldehyde in phosphate-buffered saline (PBS) (MERCK, Darmstadt, Germany) (15 min, RT) followed by incubation with ice-cold methanol (≥20 min, −20 °C). After blocking (1 h, RT, blocking solution: 5% BSA (MERCK, Darmstadt, Germany) in PBS/0.3% Triton X-100 (Sigma, Steinheim, Germany)), incubation with γH2AX antibody and 53BP1 antibody was performed (1:500, overnight, 4 °C). After incubation with the secondary fluorescence-labeled antibody (1:500, 1 h, RT, in the dark), cells were mounted in Vectashield (Vector Laboratories (Burlingame, CA, USA)) containing DAPI. The number of nuclear γH2AX and 53BP1 foci was scored (Olympus BX43 fluorescence microscope). Only nuclei with distinct foci were evaluated and γH2AX pan-stained nuclei were excluded from the foci analyses. Data are shown as the mean ± SEM of three independent experiments with ≥50 nuclei analyzed per experimental condition.

Structure (SMILES): O=C(CCCCCCC(=O)Nc1ccccc1)NO [Vorinostat, vorinostat, reference compound]
- formation of phospho-ATM (pATM) foci [1]: did not cause the formation of phospho-ATM (pATM) foci
- Cmax [2]: ~1000 nM
- formation of nuclear 53BP1 foci [3]: failed to cause the formation of nuclear 53BP1 foci
